Data reported in US11472778B2, “Hepatitis C virus NS3/4A protease inhibitors” (priority 2017, dated 2022).
Like-named read-outs stand apart in the source and are kept apart here.

Key:
[1] = test system: HCV replicon D168A variant in Huh7 cells; assay: microbe, parasite or virus in culture; type: cell-based, Hepatitis C virus; conditions: for EC50: Hepatitis C virus
Procedure, shortened: (§1)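 Variants made by site-directed mutagenesis in a Con1 (genotype 1b) luciferase reporter replicon carrying H77 (genotype 1a) NS3. Replicon RNA electroporated into Huh7 cells; luciferase (RLU) measured 96 h post-electroporation across increasing protease inhibitor concentrations.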

[2] = test system: HCV replicon R155K variant in Huh7 cells; assay: microbe, parasite or virus in culture; type: cell-based, Hepatitis C virus; conditions: for EC50: Hepatitis C virus
Procedure, shortened: as §1

[3] = test system: HCV replicon A156T variant in Huh7 cells; assay: microbe, parasite or virus in culture; type: cell-based, Hepatitis C virus; conditions: for EC50: Hepatitis C virus
Procedure, shortened: as §1

[4] = test system: HCV replicon D168V variant in Huh7 cells; assay: microbe, parasite or virus in culture; type: cell-based, Hepatitis C virus; conditions: for EC50: Hepatitis C virus
Procedure, shortened: as §1

[5] = biological target: GT1a R155K NS3/4A protease (UniProt P27958, R1181K, species not given); type: biochemical, Hepatitis C virus
Procedure: (§2) For each assay, 2 nM of NS3/4A protease (GT1a, R155K and D168A) was pre-incubated at room temperature for 1 h with increasing concentration of inhibitors in assay buffer (50 mM Tris, 5% glycerol, 10 mM DTT, 0.6 mM LDAO, and 4% dimethyl sulfoxide, pH 7.5). Inhibition assays were performed in non-binding surface 96-well black half-area plates (Corning) in a reaction volume of 60 μL. […] Three independent data sets were collected for each inhibitor with each protease construct. […] Gibbs free energy of binding was calculated using the following equation: ΔG=RTlnKi

[6] = biological target: GT1a R155K NS3/4A protease; type: biochemical, Hepatitis C virus; conditions: fold change in Ki, R155K relative to WT
Procedure: as §2

GT3a NS3/4A protease = biological target: T1, GT3a NS3/4A protease (Hepatitis C virus genotype 3a, UniProt Q81495); assay: biochemical; conditions: for Ki (Fold change) GT3a NS3/4A Protease: Table 3, Ki GT3a relative to GT1a WT
T1 construct: drug-resistant variant D168A, and GT3a NS3/4A protease; made in house; host or cells: Escherichia coli BL21(DE3)
T1 sequence (Q81495 1033-1214): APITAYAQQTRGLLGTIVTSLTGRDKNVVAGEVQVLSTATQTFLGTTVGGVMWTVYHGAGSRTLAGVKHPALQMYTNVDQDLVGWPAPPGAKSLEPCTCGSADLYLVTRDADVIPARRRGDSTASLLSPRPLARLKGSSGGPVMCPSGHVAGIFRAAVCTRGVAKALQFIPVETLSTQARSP
Procedure, shortened: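 Protease at 2 nM pre-incubated 1 h at room temperature with increasing inhibitor concentrations in 50 mM Tris, 5% glycerol, 10 mM DTT, 0.6 mM LDAO, 4% DMSO. Three independent data sets per inhibitor and construct.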

[7] = rcm bond, 15-membered ring, Zhan 1b, 1,2-DCE, 70.0 °C
[8] = biological target: GT1a D168A NS3/4A protease; type: biochemical, Hepatitis C virus; conditions: for Ki (Fold change) GT1a D168A NS3/4A Protease: Table 3, Ki D168A relative to GT1a WT
Procedure, shortened: (§3)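 NS3/4A protease (2 nM; wild-type GT1a or D168A) pre-incubated 1 h at room temperature with increasing inhibitor in 50 mM Tris pH 7.5, 5% glycerol, 10 mM DTT, 0.6 mM LDAO, 4% DMSO. Ki from three independent data sets per construct; ΔG=RTlnKi.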

[9] = biological target: T2, wild-type GT1a NS3/4A protease (UniProt P27958); type: biochemical, Hepatitis C virus
T2 construct: Ki WT; other: wild-type HCV NS3/4A protease
Procedure, shortened: as §3

[10] = biological target: T3, GT1a D168A NS3/4A protease (UniProt P27958, D1194A, species not given); type: biochemical, Hepatitis C virus
T3 construct: rows headed: Ki (nM) D168A; Ki D168A; other: D168A variant
Procedure, shortened: as §3

[11] = biological target: T4, wild-type GT1a NS3/4A protease (UniProt P27958, C1185S, species not given); type: biochemical, Hepatitis C virus; conditions: read-out: Ki (nM) GT1a WT NS3/4A Protease
T4 construct: Ki (nM) GT1a WT NS3/4A Protease
Procedure, shortened: as §3

[12] = biological target: T5, GT1a D168A NS3/4A protease (UniProt P27958, C1185S/D1194A, species not given); type: biochemical, Hepatitis C virus; conditions: read-out: Ki (nM) GT1a D168A NS3/4A Protease
T5 construct: Ki (nM) GT1a D168A NS3/4A Protease
Procedure, shortened: as §3

[13] = test system: wild-type HCV replicon in Huh7 cells; assay: Cell-based drug susceptibility (replicon) assay, wild-type; conditions: Hepatitis C virus, read-out: Replicon EC50 (nM) WT
Procedure, shortened: as §1

[14] = Huh-7, 96 h, read-out: Replicon EC50 (nM) D168A, Table 2, Huh7 cells, luciferase 96 h
[15] = Huh-7, read-out: Replicon EC50 (nM) D168A, Table 4
[16] = Table 4, relative to WT replicon
[17] = Huh-7, 96 h, read-out: Replicon EC50 (nM) R155K, Table 2, Huh7 cells, luciferase 96 h
[18] = Huh-7, read-out: Replicon EC50 (nM) R155K, Table 4
[19] = Huh-7, 96 h, read-out: Replicon EC50 (nM) A156T, Table 2, Huh7 cells, luciferase 96 h
[20] = Huh-7, read-out: Replicon EC50 (nM) A156T, Table 4
[21] = Huh-7, 96 h, read-out: Replicon EC50 (nM) D168V, Table 2, Huh7 cells, luciferase 96 h
[22] = Huh-7, read-out: Replicon EC50 (nM) D168V, Table 4
[23] = Huh-7, 96 h, Table 2, Huh7 cells, luciferase 96 h

Structure (SMILES)	EC50 [1, 14] [nM]	EC50 [1, 15] [nM]	Replicon EC50 (Fold change) D168A [1, 16]	EC50 [2, 17] [nM]	EC50 [2, 18] [nM]	Replicon EC50 (Fold change) R155K [2, 16]	EC50 [3, 19] [nM]	EC50 [3, 20] [nM]	Replicon EC50 (Fold change) A156T [3, 16]	EC50 [4, 21] [nM]	EC50 [4, 22] [nM]	Replicon EC50 (Fold change) D168V [4, 16]	Ki (GT3a NS3/4A protease) [nM]	Ki (Fold change) GT3a NS3/4A Protease (GT3a NS3/4A protease)	Ki (Fold change) GT1a D168A NS3/4A Protease [8]	Ki ([11]; Table 1) [nM]	Ki ([11]; Table 3) [nM]	Ki ([12]; Table 1) [nM]	Ki ([12]; Table 3) [nM]	EC50 ([13]; Huh-7, Table 4) [nM]	also measured
CCc1nc2ccc(OC)cc2nc1O[C@@H]1C[C@H]2C(=O)N[C@]3(C(=O)NS(=O)(=O)C4CC4)C[C@H]3/C=C\CCCCC[C@H](NC(=O)OC(C)(C)C)C(=O)N2C1 [Compound 2, tert-Butyl ((2R,6S,13aS,14aR,16aS,Z)-14a-((cyclopropylsulfonyl)carbamoyl)-2-((3-ethyl-7-methoxyquinoxalin-2-yl)oxy)-5,16-dioxo-1,2,3,5,6,7,8,9,10,11,13a,14,14a,15,16,16a-hexadecahydrocyclopropa[e]pyrrolo[1,2-a][1,4]diazacyclopentadecin-6-yl)carbamate]	6.31	6.31	(19) fold	1.75	1.75	(5) fold	9.65	9.65	(29) fold	9.1	9.1	(28) fold	204	(62) fold	(25) fold	3.29	3.29	82.4	82.4 ± 4.4	0.33	EC50 ([1]; Huh-7, read-out: Replicon EC50 (nM) D168A, Table 9): 6.3 nM; Replicon EC50 (Fold change) D168A ([1]; Table 9, relative to WT): (19) fold; EC50 ([2]; Huh-7, read-out: Replicon EC50 (nM) R155K, Table 9): 1.8 nM; Replicon EC50 (Fold change) R155K ([2]; Table 9, relative to WT): (5.5) fold; EC50 ([3]; Huh-7, read-out: Replicon EC50 (nM) A156T, Table 9): 9.7 nM; Replicon EC50 (Fold change) A156T ([3]; Table 9, relative to WT): (29) fold; EC50 ([4]; Huh-7, read-out: Replicon EC50 (nM) D168V, Table 9): 9.1 nM; Replicon EC50 (Fold change) D168V ([4]; Table 9, relative to WT): (28) fold; Ki ([5]; read-out: Ki (nM) R155K, Table 8, linear inhibitors): 3.1 ± 0.34 nM; Ki ([5]; read-out: Ki R155K, R155K variant): 3.1 ± 0.34 nM; Ki R155K (fold change) [6]: 1.6; ring closure, isolated yield ([7]; 6.0 mM): 53%; Ki D168A (fold change) ([8]; fold change in Ki, D168A relative to WT): 46; Ki ([9]; read-out: Ki (nM) WT, Table 8, linear inhibitors): 2 nM; Ki ([9]; read-out: Ki WT, wild-type HCV NS3/4A protease): 2 ± 0.1 nM; Ki ([10]; read-out: Ki (nM) D168A, Table 8, linear inhibitors): 91 ± 10 nM; Ki ([10]; read-out: Ki D168A, D168A variant): 91 ± 10 nM; EC50 [13, 23]: 0.33 nM; EC50 ([13]; Huh-7, Table 9): 0.33 nM
COc1ccc2nc(Cl)c(O[C@@H]3C[C@H]4C(=O)N[C@]5(C(=O)NS(=O)(=O)C6CC6)C[C@H]5/C=C\CCCCC[C@H](NC(=O)OC(C)(C)C)C(=O)N4C3)nc2c1 [Compound 18c, tert-Butyl ((2R,6S,13aS,14aR,16aS,Z)-2-((3-chloro-7-methoxyquinoxalin-2-yl)oxy)-14a-((cyclopropylsulfonyl)carbamoyl)-5,16-dioxo-1,2,3,5,6,7,8,9,10,11,13a,14,14a,15,16,16a-hexadecahydrocyclopropa[e]pyrrolo[1,2-a][1,4]diazacyclopentadecin-6-yl)carbamate]	< 2	1.42	(9) fold		0.44	(3) fold	16.2	16.2	(101) fold	< 1	0.73	(5) fold	67.5	(63) fold	(37) fold	1.07	1.07	39.8	39.8 ± 3.4	0.16	ring closure, isolated yield ([7]; 6.3 mM): 50%
CCc1nc2ccc(OC)cc2nc1O[C@@H]1C[C@H]2C(=O)N[C@]3(C(=O)NS(=O)(=O)C4(C)CC4)C[C@H]3/C=C\CCCCC[C@H](NC(=O)OC(C)(C)C)C(=O)N2C1 [Compound 19a, tert-Butyl ((2R,6S,13aS,14aR,16aS,Z)-2-((3-ethyl-7-methoxyquinoxalin-2-yl)oxy)-14a-(((1-methylcyclopropyl)sulfonyl)carbamoyl)-5,16-dioxo-1,2,3,5,6,7,8,9,10,11,13a,14,14a,15,16,16a-hexadecahydrocyclopropa[e]pyrrolo[1,2-a][1,4]diazacyclopentadecin-6-yl)carbamate]	4.97	4.97	(12) fold	1.8	1.8	(4) fold	4.52	4.52	(11) fold	6.42	6.42	(15) fold	171	(94) fold	(30) fold	1.82	1.82	55.2	55.2 ± 5.3	0.43	ring closure, isolated yield ([7]; from C=CCCCCC[C@H](NC(=O)OC(C)(C)C)C(=O)N1C[C@H](Oc2nc3cc(OC)ccc3nc2CC)C[C@H]1C(=O)N[C@]1(C(=O)NS(=O)(=O)C2(C)CC2)C[C@H]1C=C, 6.0 mM): 71%; EC50 [13, 23]: 0.43 nM
COc1ccc2nc(Cl)c(O[C@@H]3C[C@H]4C(=O)N[C@]5(C(=O)NS(=O)(=O)C6(C)CC6)C[C@H]5/C=C\CCCCC[C@H](NC(=O)OC(C)(C)C)C(=O)N4C3)nc2c1 [Compound 19c, tert-Butyl ((2R,6S,13aS,14aR,16aS,Z)-2-((3-chloro-7-methoxyquinoxalin-2-yl)oxy)-14a-(((1-methylcyclopropyl)sulfonyl)carbamoyl)-5,16-dioxo-1,2,3,5,6,7,8,9,10,11,13a,14,14a,15,16,16a-hexadecahydrocyclopropa[e]pyrrolo[1,2-a][1,4]diazacyclopentadecin-6-yl)carbamate]	< 2	1.07	(6) fold		0.4	(2) fold	8.86	8.86	(49) fold		0.49	(3) fold	53.6	(48) fold	(70) fold	1.11	1.11	77.7	77.7 ± 6.1	0.18	ring closure, isolated yield ([7]; 5.0 mM): 86%
